This note sets out measurements from patent publication US20170089921A1, “EXPRESSION OF VOLTAGE-GATED ION CHANNELS IN CILIATES” (priority 2014, published 2017).

One assay has as its target Nav1.8 (Homo sapiens, UniProt Q9Y5Y9). It counts as biochemical.
Assay [1] deals with T1, Kv1.3 (Homo sapiens, UniProt P22001).
T1 construct: expressed in transfected cells; host or cells: Tetrahymena thermophila (transformed, CdCl2-induced, paraformaldehyde-fixed)
Nature of the assay: Fluorescent toxin labeling of fixed Kv1.3 expressing Tetrahymena cells (confocal microscopy). Format: binding. The conditions noted are these: 10 nM, 30 minutes at RT.

Assay [2] relates to Wild-type (WT) Tetrahymena cells. The experiment in a line: Fluorescent toxin labeling of fixed wild-type control Tetrahymena cells. Format: binding, Tetrahymena thermophila. The conditions noted are these: 10 nM, 30 minutes at RT.
The target of assay [3] is T1, Kv1.3. The experiment in a line: Competition of ShK-TAMRA labeling of Kv1.3 expressing cells by non-labeled toxins. Format: binding. The settings on record: 100 nM (saturating) toxin co-incubated with 10 nM ShK-TAMRA.

No end group written: not given here.

Chain of Nav1.8 (Q9Y5Y9 whole entry): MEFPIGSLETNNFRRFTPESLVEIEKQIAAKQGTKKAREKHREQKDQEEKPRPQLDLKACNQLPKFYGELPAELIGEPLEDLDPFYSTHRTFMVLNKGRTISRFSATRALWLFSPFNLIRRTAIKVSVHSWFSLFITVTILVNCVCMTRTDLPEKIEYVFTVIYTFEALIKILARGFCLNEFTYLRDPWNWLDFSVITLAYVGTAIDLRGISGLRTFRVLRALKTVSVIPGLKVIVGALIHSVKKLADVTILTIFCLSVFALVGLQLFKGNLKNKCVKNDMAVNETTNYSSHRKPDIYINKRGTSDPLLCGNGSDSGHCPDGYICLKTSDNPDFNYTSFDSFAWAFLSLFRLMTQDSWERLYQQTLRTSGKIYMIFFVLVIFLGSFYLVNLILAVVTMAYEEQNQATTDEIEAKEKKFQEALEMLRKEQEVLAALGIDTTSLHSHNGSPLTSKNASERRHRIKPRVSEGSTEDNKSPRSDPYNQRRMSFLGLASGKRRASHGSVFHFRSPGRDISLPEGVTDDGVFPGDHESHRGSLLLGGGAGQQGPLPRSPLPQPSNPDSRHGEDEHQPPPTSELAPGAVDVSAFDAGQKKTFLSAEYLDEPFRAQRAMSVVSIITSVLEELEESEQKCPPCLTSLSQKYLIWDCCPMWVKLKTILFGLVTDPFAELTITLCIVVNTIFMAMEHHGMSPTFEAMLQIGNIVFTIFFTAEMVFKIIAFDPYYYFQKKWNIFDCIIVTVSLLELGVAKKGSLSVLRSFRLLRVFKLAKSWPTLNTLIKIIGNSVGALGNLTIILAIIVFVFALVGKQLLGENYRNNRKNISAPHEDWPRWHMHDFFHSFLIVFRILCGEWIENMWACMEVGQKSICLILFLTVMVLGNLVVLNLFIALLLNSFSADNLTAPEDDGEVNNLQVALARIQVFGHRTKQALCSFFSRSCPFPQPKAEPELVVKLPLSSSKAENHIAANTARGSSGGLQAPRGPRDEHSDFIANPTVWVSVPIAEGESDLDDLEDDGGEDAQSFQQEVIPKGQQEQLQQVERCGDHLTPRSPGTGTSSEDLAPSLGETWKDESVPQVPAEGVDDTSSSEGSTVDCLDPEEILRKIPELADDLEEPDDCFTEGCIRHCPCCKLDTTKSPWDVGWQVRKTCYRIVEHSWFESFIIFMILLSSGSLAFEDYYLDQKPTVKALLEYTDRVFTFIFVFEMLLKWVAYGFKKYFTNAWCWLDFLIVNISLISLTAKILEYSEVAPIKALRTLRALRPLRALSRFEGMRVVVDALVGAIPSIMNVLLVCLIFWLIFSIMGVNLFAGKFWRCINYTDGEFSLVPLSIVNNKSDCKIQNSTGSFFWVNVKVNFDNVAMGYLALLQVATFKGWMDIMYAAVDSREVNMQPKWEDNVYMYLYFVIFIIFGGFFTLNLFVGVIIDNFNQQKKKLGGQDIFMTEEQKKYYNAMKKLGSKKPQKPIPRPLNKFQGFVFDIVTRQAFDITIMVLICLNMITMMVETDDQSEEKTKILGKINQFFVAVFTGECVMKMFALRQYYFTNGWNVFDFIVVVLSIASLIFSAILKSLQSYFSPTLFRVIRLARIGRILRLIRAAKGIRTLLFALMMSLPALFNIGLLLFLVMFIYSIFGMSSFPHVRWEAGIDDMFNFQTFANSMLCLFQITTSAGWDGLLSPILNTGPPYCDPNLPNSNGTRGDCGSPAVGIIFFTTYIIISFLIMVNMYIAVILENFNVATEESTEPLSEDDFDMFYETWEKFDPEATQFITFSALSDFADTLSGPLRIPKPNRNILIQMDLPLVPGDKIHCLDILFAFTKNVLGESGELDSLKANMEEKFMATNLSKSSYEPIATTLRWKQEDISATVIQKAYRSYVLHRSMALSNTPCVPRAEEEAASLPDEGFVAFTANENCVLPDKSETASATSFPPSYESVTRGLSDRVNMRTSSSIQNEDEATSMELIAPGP
T1 sequence (P22001 whole entry): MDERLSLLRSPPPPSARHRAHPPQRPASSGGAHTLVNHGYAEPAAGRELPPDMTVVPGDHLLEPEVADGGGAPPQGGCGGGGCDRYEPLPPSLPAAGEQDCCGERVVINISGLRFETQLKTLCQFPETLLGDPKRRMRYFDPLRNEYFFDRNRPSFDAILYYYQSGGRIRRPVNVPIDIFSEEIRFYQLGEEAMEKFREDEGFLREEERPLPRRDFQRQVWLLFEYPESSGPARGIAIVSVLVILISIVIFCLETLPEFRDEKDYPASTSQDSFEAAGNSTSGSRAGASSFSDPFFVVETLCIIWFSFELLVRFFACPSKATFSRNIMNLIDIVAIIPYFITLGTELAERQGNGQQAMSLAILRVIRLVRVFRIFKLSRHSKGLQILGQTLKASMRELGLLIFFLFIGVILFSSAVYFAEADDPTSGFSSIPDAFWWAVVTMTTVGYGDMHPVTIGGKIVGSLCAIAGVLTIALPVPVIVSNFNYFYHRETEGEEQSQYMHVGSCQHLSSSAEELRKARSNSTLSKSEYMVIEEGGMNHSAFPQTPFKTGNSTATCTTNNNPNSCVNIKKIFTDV

Turning to `Cc1c[nH]c(C)c1C(=O)O[C@@H](C)C1=CC[C@@]23OCCN(C)C[C@@]12C[C@@H](O)[C@]12O[C@]4(O)CC[C@@]1(C)[C@H](CC=C32)C4` [BTX, batrachatoxin], the “channel activity following addition of activator” value at Nav1.8 (Nav1.8 proteoliposomes, 10× NaCl chemical gradient, 0 mV holding potential, no conductance before addition) is listed as “channel activity was detected”. Also, on Nav1.8 (after addition of BTX, 10× NaCl chemical gradient, 0 mV holding potential), the conductances is reported as 2-3 pA. In the case of `NC1=N[C@H](O)[C@H]2[C@H]3O[C@]4(O)O[C@@H]([C@@H](O)[C@@]2(N1)[C@@H]4O)[C@]3(O)CO` [Tetrodotoxin], on Nav1.8, the “channel activity following addition of blocker” value is listed as “Activity was abolished”. In the case of Agitoxin-2-TAMRA [AgTX-2-TAMRA], the “binding to Kv1.3 expressing cells (cell surface labeling)” value with Kv1.3 [1] is “bound to Kv1.3 expressing cells”. Further, in assay [2], the “labeling of WT cells” value is “No labeling”. In the case of “Iberiotoxin (QFTDVDCSVSKECWSVCKDLFGVDRGKCMGKKCRCYQ; ends and bridges not checked; cysteine pairing not given here; UniProt P24663 1-37, looked up) [IbTX]”, the “competition with ShK-TAMRA binding” value in the assay with Kv1.3 [3] is “does not interfere with ShK-TAMRA binding”. For the molecule “Margatoxin (TIINVKCTSPKQCLPPCKAQFGQSAGAKCMNGKCKCYPH; ends and bridges not checked; cysteine pairing not given here; UniProt P40755 1-39, looked up) [MgTX]”, the “competition with ShK-TAMRA binding” value with Kv1.3 [3] is given as “competitive”.

For ShK-TAMRA, the “binding to Kv1.3 expressing cells (cell surface labeling)” value at Kv1.3 [1] is recorded as “bound to Kv1.3 expressing cells”. Moreover, the “labeling of WT cells” value in assay [2] is reported as “No labeling”.
